Laboratory results as given in PubChem BioAssay AID328 (DTP/NCI, 2004).
Several values for one entry are separate records, joined by “and”; a condition that tells them apart may be missing. Identical values can stand only once. Toxic doses and inconclusive results are not listed. The calls were made as follows: active = survival T/C of 150% or more; inactive = T/C below 125% in these data.

System: BDF1 mice, P388 leukemia ip, median survival T/C
Assay: NCI In Vivo Anticancer Drug Screen. Data for tumor model P388 Leukemia (intraperitoneal) in B6D2F1 (BDF1) mice
Details: endpoint: median survival time, higher = longer survival
Summary of the method: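 Each value expresses how treatment altered survival: treated-mouse outcome over vehicle-mouse outcome, both groups bearing the transplanted tumour.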

[1] = dose: 50.0 mg/kg/injection, schedule: Q01DX009 (ip), vehicle: saline with Tween-80
[2] = dose: 100.0 mg/kg/injection, schedule: Q01DX009 (ip), vehicle: saline with Tween-80
[3] = dose: 100.0 mg/kg/injection, schedule: Q04DX003 (ip), vehicle: saline with Tween-80
[4] = dose: 200.0 mg/kg/injection, schedule: Q04DX003 (ip), vehicle: saline with Tween-80
[5] = dose: 400.0 mg/kg/injection, schedule: Q04DX003 (ip), vehicle: saline with Tween-80
[6] = dose: 200.0 mg/kg/injection, schedule: Q01DX009 (ip), vehicle: saline
[7] = dose: 100.0 mg/kg/injection, schedule: Q01DX009 (ip), vehicle: saline

Measured: T/C

O=[N+]([O-])c1[nH]cnc1Br
inactive: dose: 25.0 mg/kg/injection, schedule: Q01DX009 (ip), vehicle: Klucel (hydroxypropylcellulose) (HPC) 93 % of control | dose: 50.0 mg/kg/injection, schedule: Q01DX009 (ip), vehicle: Klucel (hydroxypropylcellulose) (HPC) 96 % of control | dose: 100.0 mg/kg/injection, schedule: Q01DX009 (ip), vehicle: Klucel (hydroxypropylcellulose) (HPC) 96 % of control | dose: 200.0 mg/kg/injection, schedule: Q01DX009 (ip), vehicle: Klucel (hydroxypropylcellulose) (HPC) 86 % of control

O=C(NNc1ccc(F)cc1)C12CC3CC(CC(C3)C1)C2
inactive: [1] 104 % of control

CSC1C(=O)Nc2cccc(C#N)c21 (stereo not drawn)
inactive: dose: 50.0 mg/kg/injection, schedule: Q04DX002 (ip), vehicle: saline with Tween-80 102 % of control | dose: 100.0 mg/kg/injection, schedule: Q04DX002 (ip), vehicle: saline with Tween-80 98 % of control | dose: 200.0 mg/kg/injection, schedule: Q04DX002 (ip), vehicle: saline with Tween-80 102 % of control

CC(C)CCCBr
inactive: [2] 118 % of control | [3] 108 % of control | dose: 200.0 mg/kg/injection, schedule: Q01DX009 (ip), vehicle: saline with Tween-80 113 % of control | [4] 112 % of control | dose: 400.0 mg/kg/injection, schedule: Q01DX009 (ip), vehicle: saline with Tween-80 122 % of control | [5] 108 % of control

O=C(O)CCC(=O)O
inactive: dose: 10.0 mg/kg/injection, schedule: Q01DX009 (ip), vehicle: saline 101 % of control and 122 % of control and 100 % of control | dose: 10.0 mg/kg/injection, schedule: Q01DX009 (ip), vehicle: water 111 % of control and 98 % of control | dose: 20.0 mg/kg/injection, schedule: Q01DX009 (ip), vehicle: saline 105 % of control and 115 % of control and 106 % of control | dose: 20.0 mg/kg/injection, schedule: Q01DX009 (ip), vehicle: water 117 % of control and 120 % of control | dose: 25.0 mg/kg/injection, schedule: Q01DX009 (ip), vehicle: other 105 % of control and 120 % of control | dose: 40.0 mg/kg/injection, schedule: Q01DX009 (ip), vehicle: saline 109 % of control and 108 % of control | dose: 40.0 mg/kg/injection, schedule: Q01DX009 (ip), vehicle: water 124 % of control and 100 % of control | dose: 50.0 mg/kg/injection, schedule: Q01DX009 (ip), vehicle: other 103 % of control and 102 % of control | dose: 80.0 mg/kg/injection, schedule: Q01DX009 (ip), vehicle: saline 108 % of control and 117 % of control | dose: 80.0 mg/kg/injection, schedule: Q01DX009 (ip), vehicle: water 115 % of control and 117 % of control | dose: 100.0 mg/kg/injection, schedule: Q01DX009 (ip), vehicle: other 102 % of control and 119 % of control | dose: 160.0 mg/kg/injection, schedule: Q01DX009 (ip), vehicle: saline 114 % of control and 110 % of control | dose: 160.0 mg/kg/injection, schedule: Q01DX009 (ip), vehicle: water 98 % of control and 124 % of control | dose: 200.0 mg/kg/injection, schedule: Q01DX009 (ip), vehicle: other 110 % of control | [6] 99 % of control and 115 % of control

CC(=O)C1(O)Cc2c(O)c3c(c(O)c2C(OC2CC(N)C(O)C(C)O2)C1)C(=O)c1ccccc1C3=O (stereo not drawn)
active: dose: 324.0 micrograms/kg/injection, schedule: Q04DX003 (ip), vehicle: water 177 % of control | dose: 540.0 micrograms/kg/injection, schedule: Q04DX003 (ip), vehicle: water 220 % of control
inactive: dose: 900.0 micrograms/kg/injection, schedule: Q04DX003 (ip), vehicle: water 116 % of control | dose: 1500.0 micrograms/kg/injection, schedule: Q04DX003 (ip), vehicle: water 90 % of control

CC(=O)Oc1cc([N+](=O)[O-])ccc1C(=O)O
inactive: [3] 104 % of control | [4] 108 % of control | [5] 100 % of control

CC(=O)OC12COC1CC(O)C1(C)C(=O)C(O)C3=C(C)C(O)CC(O)(C(OC(=O)c4ccccc4)C21)C3(C)C (stereo not drawn)
inactive: dose: 2.0 mg/kg/injection, schedule: Q01DX009 (ip), vehicle: alcohol 100 % of control | dose: 4.0 mg/kg/injection, schedule: Q01DX009 (ip), vehicle: alcohol 95 % of control | dose: 8.0 mg/kg/injection, schedule: Q01DX009 (ip), vehicle: alcohol 100 % of control | dose: 16.0 mg/kg/injection, schedule: Q01DX009 (ip), vehicle: alcohol 95 % of control

Cc1cc2nc3n(c2cc1C)C(C)(C)N=C(N)N3
inactive: [1] 102 % of control | [2] 112 % of control

O=C(O)/C=C/C(=O)Nc1cccc(Oc2ccc([N+](=O)[O-])cc2[N+](=O)[O-])c1
inactive: [7] 118 % of control | dose: 100.0 mg/kg/injection, schedule: Q04DX003 (ip), vehicle: other 100 % of control | [6] 122 % of control | dose: 200.0 mg/kg/injection, schedule: Q04DX003 (ip), vehicle: other 100 % of control | dose: 400.0 mg/kg/injection, schedule: Q04DX003 (ip), vehicle: other 91 % of control

COC(C(=O)C(O)C(C)O)C1CC2C=C3C=C(OC4CC(OC5CC(O)C(OC)C(C)O5)C(OC(C)=O)C(C)O4)C(C)C(=O)C3=C(O)C2=C(O)C1OC1CC(OC2CC(OC3CC(C)(O)C(OC(=O)C(C)C)C(C)O3)C(O)C(C)O2)C(O)C(C)O1 (stereo not drawn)
active: dose: 0.12 mg/kg/injection, schedule: Q01DX001 (ip), vehicle: other 150 % of control | dose: 0.25 mg/kg/injection, schedule: Q01DX001 (ip), vehicle: other 204 % of control | dose: 31.2 micrograms/kg/injection, schedule: Q01DX001 (ip), vehicle: saline 165 % of control | dose: 31.2 micrograms/kg/injection, schedule: Q04DX003 (ip), vehicle: saline 190 % of control | dose: 31.2 micrograms/kg/injection, schedule: Q08DX002 (ip), vehicle: saline 190 % of control | dose: 62.5 micrograms/kg/injection, schedule: Q01DX001 (ip), vehicle: saline 150 % of control and 195 % of control | dose: 62.5 micrograms/kg/injection, schedule: Q08DX002 (ip), vehicle: saline 210 % of control | dose: 125.0 micrograms/kg/injection, schedule: Q01DX001 (ip), vehicle: saline 230 % of control | dose: 125.0 micrograms/kg/injection, schedule: Q08DX002 (ip), vehicle: saline 185 % of control | dose: 250.0 micrograms/kg/injection, schedule: Q01DX001 (ip), vehicle: saline 240 % of control and 150 % of control
inactive: dose: 12.5 micrograms/kg/injection, schedule: Q01DX009 (ip), vehicle: saline 111 % of control | dose: 25.0 micrograms/kg/injection, schedule: Q01DX009 (ip), vehicle: saline 111 % of control | dose: 50.0 micrograms/kg/injection, schedule: Q01DX009 (ip), vehicle: saline 111 % of control | dose: 100.0 micrograms/kg/injection, schedule: Q01DX009 (ip), vehicle: saline 111 % of control | dose: 500.0 micrograms/kg/injection, schedule: Q01DX001 (ip), vehicle: saline 108 % of control | dose: 500.0 micrograms/kg/injection, schedule: Q08DX002 (ip), vehicle: saline 100 % of control

CCCCCCCCC(=O)c1c(OC)oc(C=O)cc1=O
inactive: dose: 2.34 mg/kg/injection, schedule: Q01DX009 (ip), vehicle: Klucel (hydroxypropylcellulose) (HPC) 96 % of control | dose: 4.69 mg/kg/injection, schedule: Q01DX009 (ip), vehicle: Klucel (hydroxypropylcellulose) (HPC) 112 % of control and 118 % of control | dose: 9.38 mg/kg/injection, schedule: Q01DX009 (ip), vehicle: Klucel (hydroxypropylcellulose) (HPC) 104 % of control and 108 % of control | dose: 18.7 mg/kg/injection, schedule: Q01DX009 (ip), vehicle: Klucel (hydroxypropylcellulose) (HPC) 105 % of control | dose: 18.75 mg/kg/injection, schedule: Q01DX009 (ip), vehicle: Klucel (hydroxypropylcellulose) (HPC) 96 % of control | dose: 37.5 mg/kg/injection, schedule: Q01DX009 (ip), vehicle: Klucel (hydroxypropylcellulose) (HPC) 93 % of control and 114 % of control and 121 % of control

CN=C1N[N+]2=C(C)CCCC2(C)S1 (stereo not drawn)
inactive: dose: 25.0 mg/kg/injection, schedule: Q01DX009 (ip), vehicle: saline 100 % of control | dose: 50.0 mg/kg/injection, schedule: Q01DX009 (ip), vehicle: saline 103 % of control | [7] 99 % of control

CN(C)[C@@H]1C(=O)C(C(N)=O)=C(O)[C@@]2(O)C(=O)C3=C(O)c4c(O)ccc(Cl)c4[C@@](C)(O)[C@H]3C[C@@H]12
inactive: dose: 132.0 mg/kg/injection, schedule: Q01DX009 (ip), vehicle: saline 122 % of control | [6] 122 % of control

COc1cccc(OC)c1C(c1c(OC)cccc1OC)c1c(OC)cccc1OC
inactive: dose: 6.25 mg/kg/injection, schedule: Q01DX009 (ip), vehicle: saline with Tween-80 115 % of control | dose: 12.5 mg/kg/injection, schedule: Q01DX009 (ip), vehicle: saline with Tween-80 100 % of control | dose: 25.0 mg/kg/injection, schedule: Q01DX009 (ip), vehicle: saline with Tween-80 109 % of control | dose: 25.0 mg/kg/injection, schedule: Q04DX003 (ip), vehicle: saline with Tween-80 104 % of control | [2] 120 % of control | [3] 116 % of control

C=CCOc1ccccn1
inactive: dose: 50.0 mg/kg/injection, schedule: Q04DX003 (ip), vehicle: saline with Tween-80 90 % of control | [3] 104 % of control | [4] 113 % of control
